Assay results reported in PubChem BioAssay (NCI).
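Five concentrations, 48 hours, 96-well plates. Definition used: TGI = concentration required for complete inhibition of growth.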 *1 amine or outer side, *2 acyl side, *3 side chain or, on linkers, in order; H or OH if unused. Where a SMILES comes first, the peptide text is derived from it. Bridges are numbered along the chain shown (N, C = ends). [ ]: non-standard residue; d: D form. The star is where a group is joined. ξ: configuration not given here. X34 = O=C(C(CCCCNO[*:3])N[*:1])[*:2]; Fmoc = O=C(OCC1c2ccccc2-c2ccccc21)*; ξW = NC(Cc1c[nH]c2ccccc12)C(=O)O; ξP = O=C(O)C1CCCN1

Experiments:
Assay in all cases: DTP human tumour cell line panel, 48 h
[1] = system: COLO 205 colon
[2] = system: NCI-H226 lung
[3] = system: SW-620 colon
[4] = system: MOLT-4 leukemia
[5] = system: MDA-MB-435
[6] = system: CAKI-1 renal
[7] = system: UO-31 renal
[8] = system: SN12C renal
[9] = system: OVCAR-3 ovarian
[10] = system: ACHN renal
[11] = system: SK-MEL-28 melanoma

In the case of `COCOC1/C=C/CCCC#C[C@H](C)C(=O)CC1` (stereo not given in full), the TGI [1] is reported as 17.6 µM, the TGI [2] is reported as 35 µM and the TGI [3] is reported as 5.64 µM. It also gave a TGI [4] greater than 29.4 µM, a TGI [5] of 19.5 µM and a TGI [6] of 24.7 µM. It also gave a TGI [7] of 28 µM, a TGI [8] of 23.6 µM and a TGI [9] of 15.2 µM. The TGI [10] was 27.8 µM and the TGI [11] was 29.4 µM.

`O=C(O)c1cc2c(cc1CC(Cc1ccc3c(c1)CCC3)C(=O)O)CCC2` (stereo not given) showed a TGI [1] greater than 100 µM, a TGI [2] greater than 100 µM and a TGI [3] greater than 100 µM. For the same compound, the TGI [4] was greater than 100 µM, the TGI [5] was greater than 100 µM and the TGI [6] was greater than 100 µM. For the same compound, the TGI [7] was greater than 100 µM, the TGI [8] was greater than 100 µM and the TGI [9] was greater than 100 µM. The TGI [10] was greater than 100 µM and the TGI [11] was greater than 100 µM.

With `NC(=O)CNC(=O)C1CCCN1C(=O)C1CCCCNOC(=O)CC[C@@H](NC(=O)OCC2c3ccccc3-c3ccccc32)C(=O)NC(Cc2c[nH]c3ccccc23)C(=O)N1` (stereo not given in full) (Fmoc-[dE][ξW][X34][ξP]G-NH2; ester 1-3) the TGI [1] was greater than 100 µM, the TGI [2] was greater than 100 µM and the TGI [3] was greater than 100 µM. For the same compound, the TGI [4] was greater than 100 µM, the TGI [5] was greater than 100 µM and the TGI [6] was greater than 100 µM. The TGI [7] was greater than 100 µM, the TGI [8] was greater than 100 µM and the TGI [9] was greater than 100 µM. For the same compound, the TGI [10] was greater than 100 µM and the TGI [11] was greater than 100 µM.

Work on `CC(CN1c2ccccc2Sc2ccccc21)N(C)C` (stereo not given) yielded a TGI [1] of 29.2 µM, a TGI [2] of 34.5 µM and a TGI [3] of 45 µM. For the same compound, the TGI [4] was 40.7 µM, the TGI [5] was 31.2 µM and the TGI [6] was 34.1 µM. For the same compound, the TGI [7] was 32.8 µM, the TGI [8] was 29.1 µM and the TGI [9] was 31.1 µM. For the same compound, the TGI [10] was 30.7 µM and the TGI [11] was 32.5 µM.

`CC(=O)OCC(C)C1=C(O)C(=O)C2(C)C/C=C(/C)CC/C=C(\C)CCC(O)C(C)CCC12` (stereo not given) showed a TGI [1] of 31.1 µM, a TGI [2] of 33.5 µM and a TGI [3] of 37.8 µM. It also gave a TGI [4] of 28.6 µM, a TGI [5] of 32.2 µM and a TGI [6] of 35.5 µM. It also gave a TGI [7] of 27.2 µM, a TGI [8] of 34.1 µM and a TGI [9] of 29.3 µM. The TGI [10] was 30.9 µM and the TGI [11] was 31.7 µM.

Compound `C[N+]1=C2[B-](C(C)(C)C)=[N+](C(C)(C)C)[B-]2(C(C)(C)C)[N+](C)=C2[B-](C(C)(C)C)=[N+](C(C)(C)C)[B-]21C(C)(C)C` (stereo not given) has a TGI [1] greater than 100 µM, a TGI [2] greater than 100 µM and a TGI [3] greater than 100 µM. It also gave a TGI [4] greater than 100 µM, a TGI [5] greater than 100 µM and a TGI [6] greater than 100 µM. For the same compound, the TGI [7] was greater than 100 µM, the TGI [8] was greater than 100 µM and the TGI [9] was greater than 100 µM. It also gave a TGI [10] greater than 100 µM and a TGI [11] greater than 100 µM.

`COc1cccc(-c2cc(=O)c3ccccc3o2)c1N` showed a TGI [1] greater than 100 µM, a TGI [2] greater than 100 µM and a TGI [3] greater than 100 µM. For the same compound, the TGI [4] was greater than 100 µM, the TGI [5] was greater than 100 µM and the TGI [6] was greater than 100 µM. It also gave a TGI [7] greater than 100 µM, a TGI [8] greater than 100 µM and a TGI [9] greater than 100 µM. The TGI [10] was greater than 100 µM and the TGI [11] was greater than 100 µM.

`COc1cccc2c(N)c3cccc(C(=O)NCCN(C)C)c3nc12` gave a TGI [1] of 0.592 µM, a TGI [2] of 0.386 µM and a TGI [3] of 2.71 µM. For the same compound, the TGI [4] was 0.264 µM, the TGI [5] was 1.18 µM and the TGI [6] was 2.21 µM. It also gave a TGI [7] of 3.04 µM, a TGI [8] of 0.488 µM and a TGI [9] of 1.7 µM. For the same compound, the TGI [10] was 2.03 µM and the TGI [11] was 3.17 µM.

Work on `COc1cc(/C=C2/C(=O)N(C(=O)c3ccccc3O)N=C2C)cc(OC)c1OC` yielded a TGI [1] greater than 100 µM, a TGI [2] greater than 100 µM and a TGI [3] greater than 100 µM. It also gave a TGI [4] greater than 100 µM, a TGI [5] greater than 100 µM and a TGI [6] greater than 25.8 µM. It also gave a TGI [7] of 6.81 µM, a TGI [8] greater than 91.2 µM and a TGI [9] of 18.7 µM. It also gave a TGI [10] greater than 100 µM and a TGI [11] greater than 100 µM.

For `CCCCN1C(=O)CC2[C@@H]3CCc4cc(OC(C)=O)ccc4C3CC[C@]2(C)C1=O` (stereo not given in full), the TGI [1] was greater than 10 µM, the TGI [2] was greater than 10 µM and the TGI [3] was greater than 10 µM. For the same compound, the TGI [4] was greater than 10 µM, the TGI [5] was greater than 10 µM and the TGI [6] was greater than 10 µM. For the same compound, the TGI [7] was greater than 10 µM, the TGI [8] was greater than 10 µM and the TGI [9] was greater than 10 µM. It also gave a TGI [10] greater than 10 µM and a TGI [11] greater than 10 µM.
